US5030647A, “Anti-inflammatory thienylbenzylamine compounds” (Boehringer Ingelheim Pharmaceuticals, Inc., priority 1990, dated 1991)
Where two headings read alike, the source gives them in different places.

Tests used:
paw swelling = experiment: Reverse passive Arthus reaction, inhibition of paw swelling after oral dosing; format: in vivo; details: rats; for inhibition in vivo at 10 mg/kg / inhibition in vivo at 100 mg/kg / inhibition in vivo at 30 mg/kg: Rattus norvegicus, po; for inhibition in vivo at 10 mg/kg: 10 mg/kg oral; for inhibition in vivo at 100 mg/kg: 100 mg/kg oral
Protocol: The reverse passive Arthus reaction is initiated by the interaction of antigen and antibody resulting in the formation of a precipitating immune complex, followed by fixation of complement, accumulation of leukocytes, edema and hemorrhage. The immunopathology of rheumatoid arthritis involves many of the parameters found in this reaction. Test groups (5 rats per group) are dosed orally with compounds one hour prior to the sub-plantar injection into the right hind paw of rabbit anti-ovalbumin antibody (50 μg/0.1 ml). Immediately afterwards, ovalbumin (Sigma, #5503) (5 mg/0.2 ml) is injected i.v. via the tail vein. The right hind paw volume is measured at hourly intervals, from one to four hours after the injection of the immune reactants. The change in paw volume for each animal is calculated by subtracting zero hour paw volume (before injection) from the paw volume at the time of measurement. The mean of these values is calculated for each group. Results are expressed in Table I below as percent inhibition of paw swelling compared to untreated controls.

human PMN = experiment: Chemotaxis of human peripheral leukocytes (human PMN chemotaxis, FMLP as chemoattractant); format: cell-based; details: Leukocyte, FMLP 1×10^-8 M; for inhibition at 1 µM: read-out: PERCENT INHIBITION (human PMN chemotaxis) 1 μM; for inhibition at 0.01 µM: read-out: PERCENT INHIBITION (human PMN chemotaxis) 0.01 μm
Protocol: A) Equal parts of citrated peripheral venous blood drawn from a normal volunteer were mixed with saline containing 6% dextran. The mixture was allowed to sediment for 30-40 minutes in a 50 ml polypropylene centrifuge tube. B) The plasma was decanted and centrifuged at 1500 rpm for 7 minutes and washed with saline. C) The supernatant was decanted and the contaminating red blood cells were eliminated by adding ice cold lysing solution and allowing the cell suspension to stand on ice for 5 minutes. […] E) The tubes were centrifuged at 400g for 30 minutes at room temperature. F) The supernatant was decanted and the PMNs (pelleted on the bottom of the tubes) were washed with saline and with Hanks buffer. The cells were adjusted to a final concentration of 3×10^6 cells/ml in Hanks buffer containing 0.5% BSA. 1) Chemoattractant: serial dilution was prepared of the stocks (10^-3 M) N-Formyl-methionyl-leucylphenylalanine in Hanks buffer and 130 μl of 1×10^-8 M solution was pipetted into the lower bottom chamber. The bottom chamber of the negative control was filled with saline. 2) Placed Millipore membranes to completely cover the wells and allowed the liquid to absorb. 3) Placed on upper chamber and tighten retaining nuts. 1) Sample preparation: Mixed equal volume of sample diluted in Hanks buffer containing […] and cell suspension in a test tube prior to pipetting 200 μl into appropriate duplicate chambers. 2) Incubated chambers at 37° C. for 40-60 minutes. 10) Three to five fields per membrane were counted with the aid of the Image Analyser (optimal 40-10). Special effort was made to select a standard for evaluating the cell monolayer in which the distribution of cells in the field of view is uniform. The number of cells at each […] level beneath the selected monolayer was then counted and the chemotactic index (CI) calculated by multiplying the individual cell count at each level by their corresponding depth of penetration, and taking the sum of these numbers. 11) The results in Table II are recorded as percent inhibition. Percent inhibition by each thienylbenzylamime was calculated as follows: [formula] The CI of the control was determined by conducting the assay with N-formyl-methionyl-leucylphenylalanine (FMLP) alone without any thienlbenzylamine. The background was determined by conducting the assay without any FMLP.

[1] = 2 h, 2 hours, read-out: % INHIBITION (of paw swelling) HOUR 2
[2] = 3 h, 3 hours, read-out: % INHIBITION (of paw swelling) HOUR 3
[3] = 4 h, 4 hours, read-out: % INHIBITION (of paw swelling) HOUR 4
[4] = 2 h, 30 mg/kg oral, 2 hours, read-out: % INHIBITION (of paw swelling) HOUR 2
[5] = 3 h, 30 mg/kg oral, 3 hours, read-out: % INHIBITION (of paw swelling) HOUR 3
[6] = 4 h, 30 mg/kg oral, 4 hours, read-out: % INHIBITION (of paw swelling) HOUR 4

Row | SMILES | inhibition in vivo at 30 mg/kg (paw swelling; [4]) | inhibition in vivo at 30 mg/kg (paw swelling; [5]) | inhibition in vivo at 30 mg/kg (paw swelling; [6]) | also measured
1 | CN(C)Cc1ccccc1C(O)c1ccc(Cl)s1 (stereo not shown) [Compound 1, 5-chloro-2-[(2-dimethylaminomethylphenyl)hydroxymethyl]thiophene] |  |  |  | inhibition in vivo at 10 mg/kg (paw swelling; [1]): 54%; inhibition in vivo at 100 mg/kg (paw swelling; [1]): 87.5%; inhibition in vivo at 10 mg/kg (paw swelling; [2]): 23.1%; inhibition in vivo at 100 mg/kg (paw swelling; [2]): 71.5%; inhibition in vivo at 10 mg/kg (paw swelling; [3]): 17.1%; inhibition in vivo at 100 mg/kg (paw swelling; [3]): 67.8%
2 | CN(C)Cc1ccccc1C(O)c1cccs1 (stereo not shown) [Compound 3, 2-[(2-Dimethylaminomethylphenyl)hydroxymethyl]thiophene] | 43.3% | 22.8% | 0% | inhibition at 1 µM (human PMN): 39%; inhibition at 0.01 µM (human PMN): 14%
3 | Cc1ccc(C(O)c2ccccc2CN(C)C)s1 (stereo not shown) [Compound 4, 2-[(2-dimethylaminomethylphenyl)hydroxymethyl]-5-methyl-thiophene] | 43.1% | 19.8% | 4.2% | inhibition at 1 µM (human PMN): 55%; inhibition at 0.01 µM (human PMN): 12%
4 | CN(C)Cc1ccc(C(O)c2ccccc2CN(C)C)s1 (stereo not shown) [Compound 10, 5-N,N-dimethylaminomethyl-2-[2-(N,N-dimethylaminomethylphenyl)hydroxymethyl]thiophene] | 55.6% | 21.6% | 19.4% | 
5 | Cc1cc(Cl)sc1C(O)c1ccccc1CN(C)C (stereo not shown) [Compound 13, 5-chloro-2-[(dimethylaminomethylphenyl)hydroxymethyl]-3-methylthiophene] | 66.8% | 24.1% | 7.3% | inhibition in vivo at 100 mg/kg (paw swelling; [1]): 51.7%; inhibition in vivo at 100 mg/kg (paw swelling; [2]): 28.6%; inhibition in vivo at 100 mg/kg (paw swelling; [3]): 3.3%
6 | CN(C)Cc1ccccc1C(O)c1ccc(Br)s1 (stereo not shown) [Compound 15] | 63.1% | 47.1% | 26.7% | 
7 | CN(C)Cc1ccccc1C(O)c1ccc(Cl)s1.O=C(O)/C=C/C(=O)O (stereo not shown) [Compound 16, 5-chloro-2-[-(2-dimethylaminomethylphenyl)-1-hydroxymethyl]thiophene monofumarate] |  |  |  | % INHIBITION (of paw swelling) HOUR 2 (paw swelling; 30 mg/kg oral, 2 hours): 17%; % INHIBITION (of paw swelling) HOUR 3 (paw swelling; 30 mg/kg oral, 3 hours): 11%; % INHIBITION (of paw swelling) HOUR 4 (paw swelling; 30 mg/kg oral, 4 hours): 0%
8 | CN(C)Cc1ccccc1C(O)c1sccc1Br (stereo not shown) [Compound 17, 3-bromo-2-[(2-dimethylaminomethylphenyl)hydroxymethyl]thiophene monofumarate] | 49% | 5% | 0% | 
9 | CN(C)Cc1ccccc1C(O)c1cc(Br)cs1 (stereo not shown) [Compound 18, 4-bromo-2-[(2-dimethylaminomethylphenyl)hydroxymethyl]thiophene] | 35% | 37% | 40% | 
10 | CN(C)Cc1ccccc1C(O)c1ccc(C2(C)OCCO2)s1 (stereo not shown) [Compound 19, 2-[(2-dimethylaminomethylphenyl)hydroxymethyl]-5-(1,1-ethylenedioxyethyl) thiophene] | 40% | 37% | 11% | 
11 | CC(=O)c1ccc(C(O)c2ccccc2CN(C)C)s1 (stereo not shown) [Compound 20, 5-acetyl-2-[(2-dimethylaminomethylphenyl)hydroxymethyl]thiophene] | 12% | 15% | 2% | 
